In patent publication US5563164A, “Phospholipase A2 inhibitors” (Eli Lilly and Company, priority 1995, dated 1996):

Molecular target: T1, Human Cytosolic PLA2 (Homo sapiens, UniProt P47712)
T1 sequence (P47712 1-749): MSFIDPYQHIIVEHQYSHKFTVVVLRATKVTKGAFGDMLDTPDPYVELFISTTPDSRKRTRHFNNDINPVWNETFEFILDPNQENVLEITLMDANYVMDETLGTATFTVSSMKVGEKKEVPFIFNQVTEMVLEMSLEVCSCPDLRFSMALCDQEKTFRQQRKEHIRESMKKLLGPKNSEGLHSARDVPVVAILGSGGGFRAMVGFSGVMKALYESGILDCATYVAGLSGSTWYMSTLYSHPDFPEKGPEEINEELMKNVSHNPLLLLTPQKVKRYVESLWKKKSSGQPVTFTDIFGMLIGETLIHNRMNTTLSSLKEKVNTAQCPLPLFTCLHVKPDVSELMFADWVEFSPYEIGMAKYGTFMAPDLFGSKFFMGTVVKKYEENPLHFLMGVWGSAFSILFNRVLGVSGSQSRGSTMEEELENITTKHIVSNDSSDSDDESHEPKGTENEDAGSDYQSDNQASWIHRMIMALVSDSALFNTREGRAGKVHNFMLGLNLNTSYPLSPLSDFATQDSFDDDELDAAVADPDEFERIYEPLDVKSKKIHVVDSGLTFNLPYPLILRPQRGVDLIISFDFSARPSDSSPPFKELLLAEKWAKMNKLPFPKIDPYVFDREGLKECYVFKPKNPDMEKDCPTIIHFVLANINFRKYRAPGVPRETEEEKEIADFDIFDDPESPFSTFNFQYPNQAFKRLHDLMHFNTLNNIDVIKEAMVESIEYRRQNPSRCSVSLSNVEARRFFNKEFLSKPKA
Experiment: Inhibition of Cytosolic Phospholipase A2 (in vitro, [14C]PC/DG sonicated liposomes)
Format: biochemical
Conditions: 37° C., 15 minutes, pH 7.5, 1 mM calcium chloride
Experimental: The biological activity of the compounds of Formula I was evaluated employing an in vitro assay measuring the ability of these compounds to inhibit the activity of cytosolic phospholipase A2. The assay was performed essentially as described in R. Kramer, et al., Journal of Biological Chemistry, 266:5268-5272 (1991) with the exception that varying amounts of the compound of Formula I were added to the reaction mixture.
The substrate, sonicated liposomes containing 1-palmitoyl-2[^14 C ]arachidonoyl-sn-glycero-3-phosphocholine ([^14 C]PC, 55 mCi/mmole from NEN Research Products) and sn-1,2-dioleoylglycerol (DG, Avanti Polar Lipids, Birmingham, Ala.) at a molar ratio of 2:1, was prepared as follows. [^14 C]PC (20 nmol, 1×10^6 dpm, 50 μg/ml in toluene/ethanol) and DG (10 nmol, 100 μg/ml in chloroform) were dried under nitrogen. The lipids were dispersed in 1 ml of 150 mM sodium chloride, 50 mM HEPES, pH 7.5 (assay buffer) by sonication at 4° C. with a Microson™ probe-sonicator (Heat Systems Ultrasonics) for 4×15 seconds, with 45 second intervals. Bovine serum albumin (essentially fatty acid free, from a 100 mg/ml stock in water, Sigma) was added to a final concentration of 4 mg/ml. Samples to be assayed for cPLA2 activity were incubated with 50 μl liposomes (0.5 nmol [^14 C]PC, 50,000 dpm containing 0.25 nmol of DG) and varying amounts of the compound of Formula I, in a total volume of 0.2 ml of assay buffer containing 1 mM calcium chloride and 1 mM 2-mercaptoethanol. Incubations were carried out at 37° C. for 15 minutes and terminated by adding 2 ml of Dole's reagent (2-propanol/heptane/0.5 M sulfuric acid, 40:10:1 containing 10 μg/ml of stearic acid).
After mixing, 1.2 ml of heptane and 1 ml of water were added. The mixtures were briefly vortexed and the upper phase transferred to tubes containing 2 ml of heptane and 150 mg of Bio-Sil (Bio-Rad Laboratories) activated at 130° C. before use. The tubes were thoroughly vortexed and centrifuged (1000×g for 5 minutes). The supernatants were decanted into scintillation vials. After addition of 10 ml of a liquid scintillation cocktail (Ready Protein®, Beckman) radioactivity was counted using a Beckman liquid scintillation counter Model LS 7000. High radioactive counts correlate with enzymatic activity.
The first column provides the example number of the test inhibitor. The second column provides the concentration of the test compound (in micromolar quantities) which inhibits fifty percent of the activity of cytosolic phospholipase A2.

Compound	IC50
CCCc1c(OCCCOc2cc(O)c(C(C)=O)cc2CC)ccc2c1OC(C(=O)O)CC2 (centres unmarked) [Example 13, 7-[3-(4-acetyl-2-ethyl-5-hydroxyphenoxy)propoxy]-3,4-dihydro-8-propyl-2H-1-benzopyran-2-carboxylic acid]	13 µM
CCc1cc(-c2ccccc2)c(O)cc1OCCCCCC(C)(C)c1nn[nH]n1 [Example 4, 2-phenyl-4-ethyl-5-[[6-(2H-tetrazol-5-yl)-6-methylheptyl]oxy]phenol]	39.4 µM
CCc1cc(CC)c(OCCCCCC(C)(C)c2nn[nH]n2)cc1O [Example 11, 2,4-diethyl-5-[[6-methyl-6-(1H-tetrazol-5yl)heptyl]oxy]phenol]	54 µM
CCc1cc(C(C)=O)c(O)cc1OCCCCCC(C)(C)c1nn[nH]n1 [Example 10, 1-[5-ethyl-2-hydroxy-4-[[6-methyl-6-(1H-tetrazol-5-yl)heptyl]oxy]phenyl]ethanone]	43 µM

Further lines, results first:

IC50	Compound
12 µM	CCCc1c(OCCCOc2cc(O)c(-c3ccc(F)cc3)cc2CC)cccc1Oc1ccccc1C(=O)O [Example 8, 2-[2-Propyl-3-[3-[2-ethyl-4-(4-fluorophenyl)-5-hydroxyphenoxy]propoxy]phenoxy]benzoic acid]
35 µM	CCc1cc(-c2ccc(F)cc2)c(O)cc1OCCCCOc1ccccc1CCC(=O)O [Example 9, 3-(2-(4-(2-Ethyl-4-(4-fluorophenyl)-5-hydroxyphenoxy)-5-butyloxy)phenyl)propionic acid]
12 µM	CCCc1c(OCCCOc2cc(O)c(-c3ccccc3)cc2CC)cccc1OC(C)C(=O)O (centres unmarked) [Example 5, 2-[3-[3-[(5-Ethyl-2-hydroxy[1, 1'-biphenyl]-4-yl)oxy]propoxy]-2-propylphenoxy]propanoic acid]
17 µM	CCc1cc(-c2ccc(F)cc2)c(O)cc1OCCCOc1ccccc1CCC(=O)NS(=O)(=O)c1ccccc1 [Example 3, N-Phenylsulfonyl-3-(2-(3-(2-ethyl-4-(4-fluorophenyl)-5-hydroxyphenoxy)propoxy)phenyl)propionamide]
18 µM	CCc1cc(-c2ccc(F)cc2)c(O)cc1OCCCOc1ccccc1CCC(=O)NS(C)(=O)=O [Example 2, N-Methanesulfonyl-3-(2-(3-(2-ethyl-4-(4-fluorophenyl)-5-hydroxyphenoxy)propoxy)phenyl)propionamide]
9 µM	CCCc1c(OCCCOc2cc(O)c(-c3ccc(F)cc3)cc2CC)ccc2c1OC(C(=O)O)CC2 (centres unmarked) [Example 6, 8-Propyl-7-[3-[4-(4-fluorophenyl)-2-ethyl-5-hydroxyphenoxy]propoxy]-3,4-dihydro-2H-1-benzopyran-2-carboxylic acid]
28 µM	CCCc1c(OCCCOc2cc(O)c(OCC)cc2CC)ccc2c1OC(C(=O)O)CC2 (centres unmarked) [Example 12, 3,4-dihydro-8-propyl-7-[3-(2-ethyl-5-hydroxy-4-ethoxy-phenoxy)propoxy]-2H-1-benzopyran-2-carboxylic acid]
14 µM	CCCc1c(OCCCOc2cc(O)c(C(C)=O)cc2CC)cccc1OC(CC)C(=O)O (centres unmarked) [Example 14, 2-[3-[3-(4-acetyl-2-ethyl-5-hydroxyphenoxy)-propoxy)-2-propylphenoxy]butanoic acid]

Tested on: neuronal cells
Experiment: not given
Conditions: Neurobiology of Aging 1992; cited from earlier work

Compound	direct toxicity (other research groups)
β-amyloid peptide: 4500 Dalton protein, major constituent of amyloid plaque cores; in its longest forms 42 or 43 amino acid residues	unable to consistently demonstrate direct toxicity

Same assay, conditions: in vitro and in vivo; B. A. Yankner 1989; cited from earlier work

Compound	neurotoxicity
β-amyloid peptide: 4500 Dalton protein, major constituent of amyloid plaque cores; in its longest forms 42 or 43 amino acid residues	neurotoxic in vitro and in vivo
